From patent US20250333405A1, “ANTAGONISTS OF GPR39 PROTEIN” (VASOCARDEA, INC., priority 2024, published 2025)
Structures can show the parent of a compound that is named as a salt.

Biological target: T1, human GPR39 receptor (Homo sapiens, UniProt O43194)
T1 construct: PC3 Cells, Expressing the Endogenous Human GPR39 Receptor; endogenous in cells; host or cells: PC3 (human prostate adenocarcinoma) cells
T1 sequence (O43194 1-453): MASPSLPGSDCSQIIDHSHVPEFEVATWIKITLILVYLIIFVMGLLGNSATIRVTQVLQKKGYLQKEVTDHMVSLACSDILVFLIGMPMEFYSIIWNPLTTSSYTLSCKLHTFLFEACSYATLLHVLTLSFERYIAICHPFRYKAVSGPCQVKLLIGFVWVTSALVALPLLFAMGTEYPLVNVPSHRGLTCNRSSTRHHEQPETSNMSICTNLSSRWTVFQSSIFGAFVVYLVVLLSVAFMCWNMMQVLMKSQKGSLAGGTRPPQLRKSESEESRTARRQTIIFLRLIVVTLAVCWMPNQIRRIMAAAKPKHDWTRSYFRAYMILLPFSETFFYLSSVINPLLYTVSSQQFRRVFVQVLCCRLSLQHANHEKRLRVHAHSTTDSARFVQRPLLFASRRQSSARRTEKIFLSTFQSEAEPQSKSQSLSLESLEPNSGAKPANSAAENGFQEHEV
Test: Intracellular calcium response (FLIPR, Calcium-6) in PC3 cells, antagonism of agonist C3 (TC-G 1008) at EC90
Assay type: cell-based
Conditions: functional pKi (-Log10Ki) by modified Cheng-Prusoff from IC50; PC3 cells endogenously expressing human GPR39; 30 μM ZnCl2; agonist C3 (TC-G 1008) at EC90 1.5 μM; read-out: fpKi activity
Procedure: Measurement of Intracellular Calcium Response in PC3 Cells, Expressing the Endogenous Human GPR39 Receptor
Human prostate adenocarcinoma (PC3) cells endogenously expressing human GPR39 receptor were seeded into black walls clear-base 384-well plates at a density of 7,500 cells per well in DMEM (Low Glucose) supplemented with 10% heat-inactivated foetal bovine serum and 1% of Pen/Strep and grown overnight at 37° C., 5% CO2. After washing with assay buffer (20 mM HEPES, 137 mM NaCl, 5.4 mM KCl, 10 mM glucose, 0.8 mM MgSO4, 1.3 mM CaCl2), 0.3 mM Na2HPO4, 0.4 mM KH2PO4 4.2 mM NaHCO3, pH 7.4), cells were incubated with Calcium-6 probe (Molecular Devices) at 37° C. for 2 h and then equilibrated at RT for 30 minutes on metal block. The fluorescence was measured in real time by Fluorometric Imaging Plate Reader (FLIPR TETRA, Molecular Devices) (excitation wavelength at 470-495 nm, emission wavelength at 515-575 nm). Compounds of invention were serially diluted in neat DMSO at 1000 fold concentrations and plated into 384-well plates and then 200-fold diluted in assay buffer containing 150 μM ZnCl2 (30 μM final concentration) and 1.1% DMSO (0.32% final concentration). A dual addition FLIPR protocol was used which included a first addition of compounds 200-fold diluted in Assay Buffer containing 150 μM ZnCl2 and 1.1% DMSO and then after 10 minutes a second addition of a submaximal concentration of the hGPR39 receptor agonist, C3 (Tocris, TC-G 1008) at EC90 (concentration producing 90% of the maximal response) value of 1.5 μM. Fluorescence was monitored throughout the run assay. The peak of Ca2+ stimulation (baseline subtracted) was expressed as percentage of the maximal inhibition of the EC90 C3 response and was plotted versus the concentration of test compound. Curve fitting and IC50 estimations are carried out using a four-parameter logistic model using XLfit Software. […] An fpKi less than 5.2 is reported as “+/−”. An fpKi ranging from 5.2 to 5.9 is reported as “+”. An fpKi from 6.0 to 6.5 is reported as “++”. An fpKi from 6.6 to 7.2 is reported as “+++”. An fpKi equal to or greater than 7.3 is reported as “++++”.

Row | Ki [nM] | Compound
1 | 1260 to 6310 | C[C@@H]1CN(C(=O)c2ccc(NC(=O)C3CC3)cc2N2CCCC2)C[C@@H](C)O1 (racemic) [Example 4, N-[4-[(trans)-2,6-dimethylmorpholine-4-carbonyl]-3-pyrrolidin-1-ylphenyl]cyclopropanecarboxamide]
2 | 1260 to 6310 | Cc1cc(Nc2ccc(C(=O)N3CCN(C)CC3c3ccccc3)c(N3CCCC3)c2)on1 (racemic) [Example 18, [4-[(3-methyl-1,2-oxazol-5-yl)amino]-2-pyrrolidin-1-ylphenyl]-(4-methyl-2-phenylpiperazin-1-yl)methanone]
3 | 316 to 1000 | CC(C)n1ccc(-c2cc(NC(=O)C3CC3)ccc2C(=O)N2CCN(C)CC2c2ccccc2)n1 (racemic) [Example 30, N-[4-(4-methyl-2-phenylpiperazine-1-carbonyl)-3-(1-propan-2-ylpyrazol-3-yl)phenyl]cyclopropanecarboxamide]
4 | > 6310 | CN1CCN(C(=O)c2ccc(NC(=O)C3CC3)cc2-c2cnc(C(F)(F)F)s2)C(c2ccccc2)C1 (racemic) [Example 31, N-[4-(4-methyl-2-phenylpiperazine-1-carbonyl)-3-[2-(trifluoromethyl)-1,3-thiazol-5-yl]phenyl]cyclopropanecarboxamide]
5 | 1260 to 6310 | Cc1ncc(-c2cc(NC(=O)C3CC3)ccc2C(=O)N2CCN(C)CC2c2ccccc2)s1 (racemic) [Example 32, N-[4-(4-methyl-2-phenylpiperazine-1-carbonyl)-3-(2-methyl-1,3-thiazol-5-yl)phenyl]cyclopropanecarboxamide]
6 | > 6310 | CN1CCN(C(=O)c2ccc(NC(=O)C3CC3)cc2-c2ccc(C(F)(F)F)s2)C(c2ccccc2)C1 (racemic) [Example 33, N-[4-(4-methyl-2-phenylpiperazine-1-carbonyl)-3-[5-(trifluoromethyl)thiophen-2-yl]phenyl]cyclopropanecarboxamide]
7 | 63.1 to 251 | Cc1ccc(-c2cc(NC(=O)C3CC3)ccc2C(=O)N2CCN(C)CC2c2ccccc2)s1 (racemic) [Example 34, N-[4-(4-methyl-2-phenylpiperazine-1-carbonyl)-3-(5-methylthiophen-2-yl)phenyl]cyclopropanecarboxamide]
8 | 316 to 1000 | CN1CCN(C(=O)c2ccc(NC(=O)C3CC3)cc2N2CCCC2)C(c2ccccc2C(F)(F)F)C1 (racemic) [Example 106, N-[4-[4-methyl-2-[2-(trifluoromethyl)phenyl]piperazine-1-carbonyl]-3-pyrrolidin-1-ylphenyl]cyclopropanecarboxamide]
9 | 63.1 to 251 | CN1CCN(C(=O)c2ccc(NC(=O)C3CC3)cc2N2CCCC2)C(c2cccc(C#N)c2)C1 (racemic) [Example 107, N-[4-[2-(3-cyanophenyl)-4-methylpiperazine-1-carbonyl]-3-pyrrolidin-1-ylphenyl]cyclopropanecarboxamide]
10 | 63.1 to 251 | Cc1ccc(C2CN(C)CCN2C(=O)c2ccc(NC(=O)C3CC3)cc2N2CCCC2)cc1 (racemic) [Example 109, N-[4-[4-methyl-2-(4-methylphenyl)piperazine-1-carbonyl]-3-pyrrolidin-1-ylphenyl]cyclopropanecarboxamide]
11 | ≤ 50.1 | Cc1cc(Cl)cc(C2CN(C)CCN2C(=O)c2ccc(NC(=O)C3CC3)cc2N2CCCC2)c1 (racemic) [Example 110, N-[4-[2-(3-chloro-5-methylphenyl)-4-methylpiperazine-1-carbonyl]-3-pyrrolidin-1-ylphenyl]cyclopropanecarboxamide]
12 | 63.1 to 251 | Cc1cccc(C2CN(C)CCN2C(=O)c2ccc(NC(=O)C3CC3)cc2N2CCCC2)c1 (racemic) [Example 111, N-[4-[4-methyl-2-(3-methylphenyl)piperazine-1-carbonyl]-3-pyrrolidin-1-ylphenyl]cyclopropanecarboxamide]
13 | ≤ 50.1 | Cc1nnc(-c2ccc(C(=O)N3CCC(F)(F)CC3)c(-c3ccn(C(C)C4CC4)n3)c2)[nH]1 (single isomer, unassigned) [Example 57a, [2-[1-(1R or 1S-cyclopropylethyl)pyrazol-3-yl]-4-(5-methyl-4H-1,2,4-triazol-3-yl)phenyl]-(4,4-difluoro-1-piperidyl)methanone]
14 | ≤ 50.1 | Cc1cc(Cl)cc(C2CN(C)CCN2C(=O)c2ccc(NC(=O)C3CC3)cc2N2CCCC2)c1 (single isomer, unassigned) [Example 110a, N-[4-[2S or 2R-(3-chloro-5-methylphenyl)-4-methylpiperazine-1-carbonyl]-3-pyrrolidin-1-ylphenyl]cyclopropanecarboxamide hydrochloride]
15 | 1260 to 6310 | Cc1cc(Cl)cc(C2CN(C)CCN2C(=O)c2ccc(NC(=O)C3CC3)cc2N2CCCC2)c1 (single isomer, unassigned) [Example 110b, N-[4-[2S or 2R-(3-chloro-5-methylphenyl)-4-methylpiperazine-1-carbonyl]-3-pyrrolidin-1-ylphenyl]cyclopropanecarboxamide hydrochloride]
16 | 316 to 1000 | Cc1nnc(-c2ccc(C(=O)N3CCN(C)CC3c3ccccc3)c(N3CCC(C(C)C)C3)c2)[nH]1 (single isomer, unassigned) [Example 125a, (4-methyl-2-phenylpiperazin-1-yl)-[4-(5-methyl-4H-1,2,4-triazol-3-yl)-2-(3-propan-2-ylpyrrolidin-1-yl)phenyl]methanone]
17 | ≤ 50.1 | Cc1nnc(-c2ccc(C(=O)N3CCN(C)CC3c3ccccc3)c(N3CCC(C(C)C)C3)c2)[nH]1 (single isomer, unassigned) [Example 125b, (4-methyl-2-phenylpiperazin-1-yl)-[4-(5-methyl-4H-1,2,4-triazol-3-yl)-2-(3-propan-2-ylpyrrolidin-1-yl)phenyl]methanone]
18 | 63.1 to 251 | Cc1nnc(-c2ccc(C(=O)N3CCN(C)CC3c3ccccc3)c(N3CCC(C(C)C)C3)c2)[nH]1 (single isomer, unassigned) [Example 125c, (4-methyl-2-phenylpiperazin-1-yl)-[4-(5-methyl-4H-1,2,4-triazol-3-yl)-2-(3-propan-2-ylpyrrolidin-1-yl)phenyl]methanone]
19 | ≤ 50.1 | Cc1nnc(-c2ccc(C(=O)N3CCN(C)CC3c3ccccc3)c(N3CCC(C(C)C)C3)c2)[nH]1 (single isomer, unassigned) [Example 125d, (4-methyl-2-phenylpiperazin-1-yl)-[4-(5-methyl-4H-1,2,4-triazol-3-yl)-2-(3-propan-2-ylpyrrolidin-1-yl)phenyl]methanone]
20 | 1260 to 6310 | O=C(Nc1ccc(C(=O)N2CCCC2c2ccccc2)c(N2CCCC2)c1)C1CC1 (stereo not drawn) [Example 1, N-[4-(2-phenylpyrrolidine-1-carbonyl)-3-pyrrolidin-1-ylphenyl]cyclopropanecarboxamide]
21 | 1260 to 6310 | O=C(Nc1ccc(C(=O)N2CCC(c3ccccc3)C2)c(N2CCCC2)c1)C1CC1 (stereo not drawn) [Example 2, N-[4-(3-phenylpyrrolidine-1-carbonyl)-3-pyrrolidin-1-ylphenyl]cyclopropanecarboxamide]
22 | 1260 to 6310 | O=C(Nc1ccc(C(=O)N2CCC3(COC3)C2)c(N2CCCC2)c1)C1CC1 [Example 3, N-[4-(2-oxa-7-azaspiro[3.4]octane-7-carbonyl)-3-pyrrolidin-1-ylphenyl]cyclopropanecarboxamide]
23 | > 6310 | CC1CN(C(=O)c2ccc(NC(=O)C3CC3)cc2N2CCCC2)CC(C)S1(=O)=O (stereo not drawn) [Example 5, N-[4-(2,6-dimethyl-1,1-dioxo-1,4-thiazinane-4-carbonyl)-3-pyrrolidin-1-ylphenyl]cyclopropanecarboxamide]
24 | 316 to 1000 | O=C(Nc1ccc(C(=O)N2CC3CCC(C2)O3)c(N2CCCC2)c1)C1CC1 [Example 6, N-[4-(8-oxa-3-azabicyclo[3.2.1]octane-3-carbonyl)-3-pyrrolidin-1-ylphenyl]cyclopropanecarboxamide]
